From PubChem BioAssay AID2060894 (Molecular Pharmacology Branch, DTP, NCI, 2025)

System: K12877-001-R-J1-PDC complex spheroid viability
Experiment: Anticancer human tumor K12877-001-R-J1-PDC patient-derived lung adenocarcinoma cell line growth inhibition [RAS]
Settings: for IC50: curve of first compound; for viability, T/C: stronger effect = lower value
From the text: RAS pathway inhibitors in Combinations in Complex Spheroids
A high-throughput screen of multi-cell type tumor spheroids was designed to identify active combinations of RAS pathway inhibitors and targeted small molecules. Complex spheroids include a stromal component modeled by human endothelial cells (HUVEC) and fibroblasts modeled by human mesenchymal stem cells (MSCs). The concentration ranges selected for each drug and investigational agent were based upon clinically achievable concentrations if the clinical Cmax of the agent was known.
Compounds. The drugs and investigational agents: abemaciclib (NSC768073), cobimetinib (NSC768068), divarasib (GDC6063, NSC841802), docetaxel (NSC628503), GDC-1971 (RLY-1971, NSC841576), gemcitabine (NSC613327), inavolisib (NSC800729), ipatasertib (NSC767898), KB-0742 (NSC834161), MRTX-1133 (NSC836407), osimertinib (NSC779217), RMC-4630 (NSC839698), RMC-6236 (NSC851965), RMC-6291 (NSC852671), Ro-3306 (NSC812927), sapanisertib (NSC764658), SN-38 (NSC673596), staurosporine (NSC755774), SY5609 (NSC837396), and tovorafenib (DAY101, NSC766906), were obtained from the National Cancer Institute (NCI) Developmental Therapeutics Program Chemical Repository. The FDA-approved anticancer drug set is available from the NCI Developmental Therapeutics Program. […] The stock solutions were prepared in dimethyl sulfoxide (DMSO, Sigma-Aldrich, St. Louis, MO, cat. D2650) at 800-fold the tested concentration and stored at -70 degrees C prior to their use. All drugs and investigational agents were tested over a range starting from a high concentration at or near the clinical Cmax and decreasing in half-log increments. If the clinical Cmax for an agent had not been determined, the highest concentration tested was 10 microM.
Cell Culture. All cells were maintained in an incubator at 37 degrees C and 5% CO2 with 95% humidity. The PDC lines were cultured according to standard operating procedures established by the NCI PDMR. All PDCs were thawed and cultured in Matrigel-coated flasks prepared with a working solution of 1X Ham's F-12 nutrient mix, without supplementation (Invitrogen, Waltham, MA, cat. 11765054), 100 U/mL penicillin-streptomycin (Invitrogen, cat. 15140122), and 2.5% Matrigel (Corning Inc., Corning, NY, cat. 354248) for the first three passages. The 362531-283-R-J2-PDC and 782815-120-R-J1-PDC lines were cultured in 6C/Colon 1B media, which includes advanced DMEM/F-12 (Thermo Fisher Scientific, cat. 12634028), 10 mM HEPES (Thermo Fisher Scientific, cat. 15630080), 1X GlutaMAX supplement (Thermo Fisher Scientific, cat. 35050061), 0.1 mg/mL primocin (InvivoGen, San Diego, CA, cat. ant-pm-2), 10% defined fetal bovine serum, heat inactivated (HyClone Laboratories Inc., Logan, UT, cat. SH30070.03HI), 50% L-WRN conditioned media (ATCC, cat. CRL-3276), 1.25 mM N-Acetyl-L-cysteine (Sigma-Aldrich, cat. A9165), 10 mM nicotinamide (Sigma-Aldrich, cat. N0636), 1X B-27 supplement (Thermo Fisher Scientific, cat. 17504044), 1X N-2 supplement (Thermo Fisher Scientific, cat. 17502048), 50 ng/mL human EGF (Thermo Fisher Scientific, cat. PHG0311), and 10 microM Y-27632 dihydrochloride (Tocris Bioscience, cat. 1254). The K12877-001-R-J1-PDC line was cultured in 6I media, which includes all 6C/Colon 1B media plus 10 ng/mL human FGF-10 (PeproTech, cat. 100-26), 1 ng/mL human FGF-2 (PeproTech, cat. 100-18B), 1 µM prostaglandin E2 (Tocris Bioscience, cat. 2296), […] hydrocortisone (Sigma-Aldrich, cat. H4001), and […] bovine insulin (Sigma-Aldrich, cat. I6634). The K86415-001-R-J1-PDC line was cultured in 6D media, which includes all 6C/Colon 1B media components minus the L-WRN conditioned media. The 485176-168-R4-J1-PDC was cultured in PANC media, which includes all 6C/Colon 1B media plus 100 ng/mL human FGF-10 (PeproTech, cat. 100-26), 500 nM SB-431542 (Selleckchem, cat. S1067), and 10 nM gastrin (Tocris Bioscience, cat. 3006). […]
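Further: spheroids exposed to agents for one week before readout.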

Work on CCc1c2c(nc3ccc(O)cc13)-c1cc3c(c(=O)n1C2)COC(=O)[C@]3(O)CC + C#Cc1c(F)ccc2cc(O)cc(-c3ncc4c(N5CC6CCC(C5)N6)nc(OCC56CCCN5CC(F)C6)nc4c3F)c12 yielded an IC50 (second compound 0.0316 µM) of 4.79 nM, an IC50 (second compound 0.1 µM) of 5.39 nM and an IC50 (second compound 0.316 µM) of 5.3 nM. For the same compound, the IC50 (second compound 1 µM) was 5.51 nM, the IC50 (second compound 3.16 µM) was 5.35 nM and the IC50 (second compound 10 µM) was 4.74 nM. It also gave a viability, T/C (second compound 0.0316 µM, first compound 0.000949 µM) of 109%, a viability, T/C (second compound 0.0316 µM, first compound 0.003 µM) of 77.1% and a viability, T/C (second compound 0.0316 µM, first compound 0.00949 µM) of 10.3%. The viability, T/C (second compound 0.0316 µM, first compound 0.03 µM) was 4.77%, the viability, T/C (second compound 0.0316 µM, first compound 0.0949 µM) was 2.24% and the viability, T/C (second compound 0.0316 µM, first compound 0.3 µM) was 0.94%. It also gave a viability, T/C (second compound 0.1 µM, first compound 0.000949 µM) of 107%, a viability, T/C (second compound 0.1 µM, first compound 0.003 µM) of 89% and a viability, T/C (second compound 0.1 µM, first compound 0.00949 µM) of 12.3%. The viability, T/C (second compound 0.1 µM, first compound 0.03 µM) was 4.96%, the viability, T/C (second compound 0.1 µM, first compound 0.0949 µM) was 2.8% and the viability, T/C (second compound 0.1 µM, first compound 0.3 µM) was 1.27%. It also gave a viability, T/C (second compound 0.316 µM, first compound 0.000949 µM) of 89.3%, a viability, T/C (second compound 0.316 µM, first compound 0.003 µM) of 87.6% and a viability, T/C (second compound 0.316 µM, first compound 0.00949 µM) of 11.5%. The viability, T/C (second compound 0.316 µM, first compound 0.03 µM) was 4.86%, the viability, T/C (second compound 0.316 µM, first compound 0.0949 µM) was 2.49% and the viability, T/C (second compound 0.316 µM, first compound 0.3 µM) was 1.48%. The viability, T/C (second compound 1 µM, first compound 0.000949 µM) was 86.5%, the viability, T/C (second compound 1 µM, first compound 0.003 µM) was 99.4% and the viability, T/C (second compound 1 µM, first compound 0.00949 µM) was 11.7%. For the same compound, the viability, T/C (second compound 1 µM, first compound 0.03 µM) was 9.22%, the viability, T/C (second compound 1 µM, first compound 0.0949 µM) was 2.66% and the viability, T/C (second compound 1 µM, first compound 0.3 µM) was 1.23%. The viability, T/C (second compound 3.16 µM, first compound 0.000949 µM) was 95%, the viability, T/C (second compound 3.16 µM, first compound 0.003 µM) was 85.9% and the viability, T/C (second compound 3.16 µM, first compound 0.00949 µM) was 14.4%. It also gave a viability, T/C (second compound 3.16 µM, first compound 0.03 µM) of 7.59%, a viability, T/C (second compound 3.16 µM, first compound 0.0949 µM) of 3.16% and a viability, T/C (second compound 3.16 µM, first compound 0.3 µM) of 2.37%. For the same compound, the viability, T/C (second compound 10 µM, first compound 0.000949 µM) was 82.9%, the viability, T/C (second compound 10 µM, first compound 0.003 µM) was 75.4% and the viability, T/C (second compound 10 µM, first compound 0.00949 µM) was 11.4%. For the same compound, the viability, T/C (second compound 10 µM, first compound 0.03 µM) was 5.12%, the viability, T/C (second compound 10 µM, first compound 0.0949 µM) was 4.3% and the viability, T/C (second compound 10 µM, first compound 0.3 µM) was 1.89%.

In the case of CC(Nc1ccc2c(c1)OCCn1cc(N3C(=O)OCC3C(F)F)nc1-2)C(N)=O (centres undefined) + C#Cc1c(F)ccc2cc(O)cc(-c3ncc4c(N5CC6CCC(C5)N6)nc(OCC56CCCN5CC(F)C6)nc4c3F)c12, the IC50 (second compound 0.0316 µM) is reported as 4900 nM, the IC50 (second compound 0.1 µM) is reported as 3940 nM and the IC50 (second compound 0.316 µM) is reported as 4320 nM. It also gave an IC50 (second compound 1 µM) of 4490 nM, an IC50 (second compound 3.16 µM) of 4630 nM and an IC50 (second compound 10 µM) of 2910 nM. It also gave a viability, T/C (second compound 0.0316 µM, first compound 0.0316 µM) of 97.5%, a viability, T/C (second compound 0.0316 µM, first compound 0.1 µM) of 88.9% and a viability, T/C (second compound 0.0316 µM, first compound 0.316 µM) of 80.2%. The viability, T/C (second compound 0.0316 µM, first compound 1 µM) was 69.6%, the viability, T/C (second compound 0.0316 µM, first compound 3.16 µM) was 60.4% and the viability, T/C (second compound 0.0316 µM, first compound 10 µM) was 37.4%. It also gave a viability, T/C (second compound 0.1 µM, first compound 0.0316 µM) of 107%, a viability, T/C (second compound 0.1 µM, first compound 0.1 µM) of 82.7% and a viability, T/C (second compound 0.1 µM, first compound 0.316 µM) of 84.6%. For the same compound, the viability, T/C (second compound 0.1 µM, first compound 1 µM) was 62.7%, the viability, T/C (second compound 0.1 µM, first compound 3.16 µM) was 56.7% and the viability, T/C (second compound 0.1 µM, first compound 10 µM) was 37%. The viability, T/C (second compound 0.316 µM, first compound 0.0316 µM) was 110%, the viability, T/C (second compound 0.316 µM, first compound 0.1 µM) was 88.9% and the viability, T/C (second compound 0.316 µM, first compound 0.316 µM) was 73.9%. The viability, T/C (second compound 0.316 µM, first compound 1 µM) was 71.2%, the viability, T/C (second compound 0.316 µM, first compound 3.16 µM) was 55.1% and the viability, T/C (second compound 0.316 µM, first compound 10 µM) was 38.8%. It also gave a viability, T/C (second compound 1 µM, first compound 0.0316 µM) of 96.3%, a viability, T/C (second compound 1 µM, first compound 0.1 µM) of 90.3% and a viability, T/C (second compound 1 µM, first compound 0.316 µM) of 78.5%. For the same compound, the viability, T/C (second compound 1 µM, first compound 1 µM) was 64.5%, the viability, T/C (second compound 1 µM, first compound 3.16 µM) was 60.3% and the viability, T/C (second compound 1 µM, first compound 10 µM) was 37%. For the same compound, the viability, T/C (second compound 3.16 µM, first compound 0.0316 µM) was 103%, the viability, T/C (second compound 3.16 µM, first compound 0.1 µM) was 89.4% and the viability, T/C (second compound 3.16 µM, first compound 0.316 µM) was 79.6%. For the same compound, the viability, T/C (second compound 3.16 µM, first compound 1 µM) was 65.1%, the viability, T/C (second compound 3.16 µM, first compound 3.16 µM) was 64.8% and the viability, T/C (second compound 3.16 µM, first compound 10 µM) was 35.2%. For the same compound, the viability, T/C (second compound 10 µM, first compound 0.0316 µM) was 99.5%, the viability, T/C (second compound 10 µM, first compound 0.1 µM) was 75.7% and the viability, T/C (second compound 10 µM, first compound 0.316 µM) was 68.8%. The viability, T/C (second compound 10 µM, first compound 1 µM) was 63%, the viability, T/C (second compound 10 µM, first compound 3.16 µM) was 66.5% and the viability, T/C (second compound 10 µM, first compound 10 µM) was 23.8%.
